Assays:
Assay type in all cases: cell-based, human
PR = assay: PRE-Luciferase reporter assay in T47D; conditions: 100 nM P4 24 hr, 1 hr pretreatment with Iressa
Protocol: (§1) A: Hormone-stripped MCF7 or T47D were co-transfected with vector, WBP2-WT or WBP2-Y192-231F mutant and ERE/PRE-Luciferase reporter constructs. Cells were either left alone or stimulated with (a) 50 ng/ml EGF for 5 min, (b) 10 nM E2/100 nM P4 for 24 hr, (c) E2/P4 and EGF in the absence or presence of 1 hr pretreatment with 100 μM Iressa(Ir). ERα/PR-transactivated luciferase activities in various conditions were then assayed. **P<0.01, ***P<0.001, Student's t-test (2-tailed). B: T47D were hormone-stripped and stimulated with 10 nM E2 for the indicated time (0-24 hr) in the absence and presence of 1 hr pretreatment with 10 μM Iressa(k). C: WT-WBP2 or Y192-231F mutant-transfected T47D were hormone stripped followed by 24 hr stimulation with 10 nM E2. For both experiments B and C, cells were then harvested for subcellular fractionation into nuclear and cytoplasmic fractions, which were used for IB/IP analysis with antibodies indicated. Histone 2A and GADPH were used as nuclear and cytoplasmic marker respectively. […] ERE (Top panel)/PR (Bottom panel)-transactivated luciferase activities in various conditions were then assayed analyzed in relative to vehicle-treated vector control. **P<0.01, ***P<0.001, Student's t-test (2-tailed). […] ERα-transactivated luciferase activities in various conditions were then assayed analyzed in relative to vehicle-treated vector control. […]

WBP2 [1] = assay: Subcellular fractionation of T47D, nuclear WBP2 upon estrogen stimulation; conditions: 10 nM E2 0-24 hr, 1 hr pretreatment with 10 μM Iressa
Protocol: as §1

WBP2 [2] = assay: Estrogen/progesterone-induced WBP2 tyrosine phosphorylation in MCF7 (IP/IB); conditions: 10 nM E2 or 100 nM P4 for 24 hr, 10 μM Iressa pre-treatment for 1 hr
Protocol: A: Serum-starved cells were stimulated with 50 ng/ml EGF (E) for 5 min or hormone-stripped cells were stimulated with 10 nM Estrogen (E2) or 100 nM Progesterone (P4) for 24 hr with/without 10 μM Iressa (Ir) pre-treatment for 1 hr. Whole cell lysates were used for IP/IB analysis with antibodies indicated. […] D: Serum-starved MCF7 were stimulated with 50 ng/ml EGF (E) for 5 min or hormone-stripped cells were stimulated with 10 nM estrogen (E2) or 100 nM progesterone (P4) for 24 hr with/without 10 μM Iressa (Ir) pre-treatment for 1 hr. Whole cell lysates were used for IP/IB analysis with antibodies indicated. […] 24 hr post-transfection, serum-starved MCF7 were stimulated with 50 ng/ml EGF (E) for 5 min or hormone-stripped cells were stimulated with 10 nM Estrogen (E2) or 100 nM Progesterone (P4) for 24 hr. Whole cell lysates were used for IP/IB analysis with antibodies indicated. “O” denotes “untreated/vehicle-treated”
For all experiments involving estrogen/progesterone (Sigma), MCF7 and T47D were cultured in Phenol-Red Free RPMI1640 (Sigma) containing 5% Charcoal-dextran Stripped FBS (Hyclone) for at least 2 days before stimulation. […] Fresh hormone/drug was replenished every day for treatment that last for more than 1 day.
MCF7, MDA-MB231, T47D, HeLa and MCF10A were from American Type Culture Collection. […]

ERα = assay: ERE-Luciferase reporter assay in MCF7; conditions: MCF7; 10 nM E2 24 hr; 1 hr pretreatment with Iressa
Protocol: as §1

progesterone-induced coactivator activity of WBP2 (PR reporter) (PR): abolished | estrogen-induced coactivator activity of WBP2 (ERα reporter) (ERα): abolished
SMILES: COc1cc2ncnc(Nc3ccc(F)c(Cl)c3)c2cc1OCCCN1CCOCC1 [Iressa]
nuclear WBP2 upon estrogen stimulation (WBP2 [1]): reduced | estrogen/progesterone-induced WBP2 phosphorylation (WBP2 [2]): Significant abolishment

Source: patent US9429582B2, “Tyrosine-phosphorylated WBP2, a novel cancer target and biomarker” (National University of Singapore, priority 2010, dated 2016)
